How the values were obtained:
[1] = Body weight changes in mice after IP administration; assay type: in vivo; settings: 10 and 50 mg/kg, 7 days
Description: After U2OS cells were treated with various concentrations (0 ~ 50 μM) of SR1078,
Body weight changes (%) in […]

RORα [2] = target: T1, RORα (Homo sapiens, UniProt P35398); assay: Luciferase reporter assay (G6Pase or FGF21 promoter) in HEK293T cells cotransfected with RORα; assay type: cell-based; settings: HEK293T, RORα; for luminescence of G6Pase and FGF21 luciferase reporters: vs DMSO
T1 construct: HEK293T cells co-transfected with a full-length RORα gene and a luciferase reporter gene; expressed in transfected cells; host or cells: HEK293T
T1 sequence (P35398 1-523): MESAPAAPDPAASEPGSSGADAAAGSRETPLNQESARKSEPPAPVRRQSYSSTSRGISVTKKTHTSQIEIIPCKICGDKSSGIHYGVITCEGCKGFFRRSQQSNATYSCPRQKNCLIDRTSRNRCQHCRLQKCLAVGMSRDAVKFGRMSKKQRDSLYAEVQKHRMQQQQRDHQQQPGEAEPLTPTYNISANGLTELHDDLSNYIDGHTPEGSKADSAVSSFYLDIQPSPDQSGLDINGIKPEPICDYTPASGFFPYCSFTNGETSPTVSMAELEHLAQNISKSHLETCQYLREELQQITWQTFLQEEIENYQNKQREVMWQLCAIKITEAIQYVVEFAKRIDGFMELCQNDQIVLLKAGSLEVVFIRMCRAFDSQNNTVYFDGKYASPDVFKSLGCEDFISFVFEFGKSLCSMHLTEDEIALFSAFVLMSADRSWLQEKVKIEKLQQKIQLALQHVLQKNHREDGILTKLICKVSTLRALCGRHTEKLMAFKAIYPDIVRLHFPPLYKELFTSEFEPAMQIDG
Description: (§1) HEK293T cells were transfected with Lipofectamine 8000 (ThermoFisher) strictly following the manufacturer’s instructions. Cotransfected HEK293T cells with RORα or RORγ plasmid and a reporter consisting of the G6Pase or FGF21 promoters upstream of a luciferase reporter gene. 500 ng plasmid DNA was transfected into each well of 24 well-plate 24 h after the transfection, DMSO or Gala-SR and SR1078 (5 µmol/L) was added and incubated for 24 h. The Lumicycle instrument detects luminescence and records the numerical value.

RORγ = target: T2, RORγ (Homo sapiens, UniProt P51449); assay: Luciferase reporter assay (G6Pase or FGF21 promoter) in HEK293T cells cotransfected with RORγ; assay type: cell-based; settings: 5 μmol/L; for luminescence intensity of G6Pase and FGF21 reporter genes: compared to DMSO
T2 construct: expressed in transfected cells; host or cells: HEK293T
T2 sequence (P51449 1-518): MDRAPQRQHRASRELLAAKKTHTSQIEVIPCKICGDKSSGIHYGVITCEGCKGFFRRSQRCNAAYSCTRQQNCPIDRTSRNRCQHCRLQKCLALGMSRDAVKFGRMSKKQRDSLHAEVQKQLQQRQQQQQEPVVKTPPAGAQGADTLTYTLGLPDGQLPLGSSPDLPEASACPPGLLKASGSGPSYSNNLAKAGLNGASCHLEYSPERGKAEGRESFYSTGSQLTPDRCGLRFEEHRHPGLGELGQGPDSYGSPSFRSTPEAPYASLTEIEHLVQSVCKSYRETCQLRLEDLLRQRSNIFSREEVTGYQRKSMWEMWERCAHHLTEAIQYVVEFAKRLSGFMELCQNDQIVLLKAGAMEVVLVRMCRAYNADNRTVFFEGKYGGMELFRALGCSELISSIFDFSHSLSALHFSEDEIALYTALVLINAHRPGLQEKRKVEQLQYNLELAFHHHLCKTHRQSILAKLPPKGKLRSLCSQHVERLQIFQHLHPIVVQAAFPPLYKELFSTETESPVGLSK
Source text: as §1, with “500 ng plasmid DNA was transfected into each well of 24 well-plate 24 h after the transfection, DMSO or Gala-SR and SR1078 (5 µmol/L) was added and incubated for 24 h.” left out

RORα [3] = target: T1, RORα; assay: G6Pase and FGF21 mRNA in HEK293T cells after RORα knockdown by siRNA; assay type: cell-based; settings: 5 μmol/L, 24 h
Description: RNA from liver, periodontal tissues and cell samples was prepared as previously described. Total RNA (1 ug) was synthesized into cDNA using […] (Vazyme). mRNA expression levels were normalized to GAPDH. Relative expression levels and enrichment contents were calculated using the comparative Ct Method. Primer information is detailed in Data file S1.

[4] = tested on: Per2-dLuc and Bmal1-dLuc U2OS cells; assay: Real-time bioluminescence monitoring of Per2-dLuc and Bmal1-dLuc U2OS cells; assay type: cell-based, human; settings: for dose dependence of the enhancing effect on the amplitude of BMAL1: Bmal1-dLuc U2OS cells, 1-10 μM; for fluctuation degree (amplitude) of bioluminescence intensity / period or phase of the bioluminescence / overall bioluminescence levels: Bmal1-dLuc and Per2-dLuc U2OS cells, 2 μmol/L; for overall bioluminescence levels: vs DMSO
Description: Two clonal circadian reporter cell lines, Bmal1-dLuc and Per2-dLuc, were established and used in this study.[36] These two cell lines display robust cellular rhythmicity with near anti-phasic oscillation of bioluminescence expression. The lentivirus preparation, transduction of U2OS cells and selection of the knockout candidates with puromycin (at […] concentration) were performed using a previously published protoco.[37] LumiCycle (Actimetrics, Inc., Evanston, IL) detect for U2OS cells stably expressing Bmal1-dLuc and Per2-dLuc cells were seeded on an opaque 24-well plate. When the cells are full, which were treated with dexamethasone (DEX) (100 nmol/L final) for 2 h for resetting, 2 h later, the media of cells were replaced with bioluminescence recording media having DMEM culture medium (Gibco 21063029, 500 mL), 70 mL 12% FBS. Luciferin (0.1 mmol/L final) was added fresh to the bioluminescence media. Molecules at determined concentrations were supplied to the recording media (final DMSO concentration is 0.1%).

C57 mice = assay: Mouse locomotor assay; assay type: in vivo; settings: 10 mg/kg IP at ZT11, D:D, compared to DMSO
Description: WT C57BL/6 J mice at the age of 2 months old were entrained under a 12-h /12-h […] at 24 °C for 2 weeks.[36] One week after mouse clock synchronization to the ambient light/dark cycle, SR1078, Gala-SR or dimethyl sulfoxide (DMSO) was dissolved in saline and intraperitoneally injected (10 mg/kg) into mice 1 h before light off (ZT11). […] SR1078, Gala-SR or DMSO was injected again 24 h later. After 2 weeks of continuous recording, locomotor activity was analyzed with ClockLab software (Actimetrics) following the procedures described previously34.

PER2::LUC mice = assay: Real-time bioluminescence recording of PER2::LUC mice; assay type: in vivo; settings: 10 mg/kg IP at ZT0
Description: PER2::LUC mice at ages of 2–3 months-old were housed in 12:12 light-dark conditions for two weeks before the experiments.[33] Gala-SR and SR1078 (10 mg/kg) were dissolved in DMSO and I.P.injected into mouse at ZT0. After 1 h, D-luciferin was I.P. injected into mouse for another 0.5 h. Mice were then imaged on IVIS 673 Lumina III system and analyzed with live imaging software.

Compound | systemic toxicity (body weight changes) [1] | expression of G6Pase and FGF21 luciferase reporter genes compared to SR1078 (RORα [2]; 5 μmol/L) | activation of luciferase reporters, with galactosidase inhibitor (RORα [2]; 5 μmol/L Gala-SR + β-galactosidase inhibitor, vs Gala-SR alone) | expression of G6Pase and FGF21 luciferase reporter genes, combined with galactosidase (RORα [2]; 5 μmol/L Gala-SR + β-galactosidase, vs Gala-SR alone) | luminescence of G6Pase and FGF21 luciferase reporters (RORα [2]; 5 μmol/L) | difference between Gala-SR and SR1078 in RORγ reporter luminescence (RORγ) | luminescence intensity of G6Pase and FGF21 reporter genes (RORγ) | activation of G6Pase and FGF21 transcription after RORα knockdown (RORα [3]) | dose dependence of the enhancing effect on the amplitude of BMAL1 [4] | fluctuation degree (amplitude) of bioluminescence intensity [4] | period or phase of the bioluminescence [4] | overall bioluminescence levels [4] | circadian rhythm amplitude, with β-glycosidase ([4]; Gala-SR + β-galactosidase (205 U/mg)) | circadian rhythm amplitude, with β-glycosidase inhibitor ([4]; Gala-SR + β-galactosidase inhibitor (26 mmol/L)) | activity rhythm (amplitude) and total activity (C57 mice) | liver luciferase signal (PER2::LUC mice)
O=C(Nc1ccc(C(OCO[C@@H]2O[C@H](CO)[C@H](O)[C@H](O)[C@H]2O)(C(F)(F)F)C(F)(F)F)cc1)c1ccc(C(F)(F)F)cc1 [Gala-SR] | reduced systematic toxicity | substantially elevated expression | significantly decreased compared to the original level | significantly enhanced expression | marked augmentation in the luminescence | no significant difference | significantly enhanced the luminescence intensity | markedly hampered the activation | increases with the dose | further enhanced | neither SR1078 nor Gala-SR treatment induced any obvious alterations | superior efficacy than SR1078 | augmentation | suppression | significantly increased | induced within 0.5 h of treatment
O=C(Nc1ccc(C(O)(C(F)(F)F)C(F)(F)F)cc1)c1ccc(C(F)(F)F)cc1 [SR1078, reference compound] | dose-dependent toxicity | – | – | – | marked augmentation in the luminescence | – | significantly enhanced the luminescence intensity | markedly hampered the activation | difficult to further promote its efficacy | significant augmentation | neither SR1078 nor Gala-SR treatment induced any obvious alterations | significantly elevated | – | – | significantly increased | induced within 0.5 h of treatment

Reference: paper PMC12575728, “Galactose-modified small molecule modulator targets RORα to enhance circadian rhythm and alleviate periodontitis-associated alveolar bone loss” (Bone Research, 2025)
